According to patent publication US7261876B2, “Multivalent constructs for therapeutic and diagnostic applications” (Bracco International BV, priority 2002, dated 2007):
Entries after “also recorded” stand apart in the source; their conditions may differ. Values belong to the compound of their own block, whether it stands above or below them. Positions of bridges follow the written chain, without caps; N, C: chain ends. Non-standard residues stand in square brackets, D forms with d. Residues, ends and D or L forms follow the SMILES beside them. Lys(ivDde) = CC(C)CC(NCCCC[C@H](N)C(=O)O)=C1C(=O)CC(C)(C)CC1=O

How the values were obtained:
KDR = target: T1, KDR (Homo sapiens, UniProt P35968); assay: VEGF-induced KDR receptor activation (phosphorylation) assay in HUVECs; assay type: cell-based; conditions: for inhibition of VEGF-induced activation of KDR: concentration not given
T1 construct: host or cells: HUVEC
Excerpt: Human umbilical vein endothelial cells (HUVECs) (Biowhittaker Cat No. CC-2519) were obtained frozen on dry ice and stored in liquid nitrogen until thawing. These cells were thawed, passaged, and maintained as described by the manufacturer in EGM-MV medium (Biowhittaker Cat No. CC-3125). Cells seeded into 100 mm dishes were allowed to become confluent, then cultured overnight in basal EBM medium lacking serum (Biowhittaker Cat No. CC-3121). The next morning, the medium in the dishes was replaced with 10 mL fresh EBM medium at 37° C. containing either no additive (negative control), 5 ng/mL VEGF (Calbiochem Cat No. 676472 or Peprotech Cat No. 100-20) (positive control), or 5 ng/mL VEGF plus the indicated concentration of the KDR-binding peptide (prepared as described above). In some cases, a neutralizing anti-KDR antibody (Cat No. AF357, R&D Systems) was used as a positive control inhibitor of activation. In such cases, the antibody was pre-incubated with the test cells for 30 min at 37° C. prior to the addition of fresh medium containing both VEGF and the antibody. After incubating the dishes 5 min in a 37° C. tissue culture incubator they were washed three times with ice-cold Dulbecco's phosphate buffered saline (D-PBS) containing calcium and magnesium and placed on ice without removing the last 10 mL of D-PBS. The first dish of a set was drained and 0.5 mL of Triton lysis buffer was added (20 mM Tris base pH 8.0, 137 mM NaCl, 10% glycerol, 1% Triton X-100, 2 mM EDTA (ethylenediaminetetraacetic acid), 1 mM PMSF (phenylmethylsulfonylfluoride), 1 mM sodium orthovanadate, 100 mM NaF, 50 mM sodium pyrophosphate, 10 μg/mL leupeptin, 10 μg/mL aprotinin). The cells were quickly scraped into the lysis buffer using a cell scraper (Falcon, Cat No. 353087), dispersed by pipeting up and down briefly, and the resulting lysate was transferred to the second drained dish of the pair. Another 0.5 mL of lysis buffer was used to rinse out the first dish then transferred to the second dish, which was then also scraped and dispersed. The pooled lysate from the two dishes was transferred to a 1.5 mL Eppindorf tube. The above procedure was repeated for each of the controls and test samples (KDR-binding peptides), one at a time. The lysates were stored on ice until all the samples had been processed. At this point samples were either stored at −70° C. or processed to the end of the assay without interruption.
The lysates, either freshly prepared or frozen and thawed, were precleared by adding 20 μL of protein A-sepharose beads (Sigma 3391, preswollen in D-PBS), washed three times with a large excess of D-PBS, reconstituted with 6 mL D-PBS to generate a 50% slurry) and rocked at 4° C. for 30 min. The beads were pelleted by centrifugation for 2 min in a Picofuge (Stratgene, Cat No. 400550) at 2000×g and the supernatants transferred to new 1.5 mL tubes. 20 μg of anti-Flk-1 antibody (Santa Cruz Biotechnology, Cat No. sc-504) was added to each tube, and the tubes were incubated overnight (16–18 h) at 4° C. on a rotator to immunoprecipitate KDR. The next day 40 μL of protein A-sepharose beads were added to the tubes, which were then incubated at 4° C. for 1 h on a rotator. The beads in each tube were subsequently washed three times by centrifuging for 2 min in a Picofuge, discarding the supernatant, and dispersing the beads in 1 mL freshly added TBST buffer (20 mM Tris base pH 7.5, 137 mM NaCl, and 0.1% Tween 20). After centrifuging and removing the liquid from the last wash, 40 μL of Laemmli SDS-PAGE sample buffer (Bio-Rad, Cat No. 161-0737) was added to each tube and the tubes were capped and boiled for 5 min. After cooling, the beads in each tube were pelleted by centrifuging and the supernatants containing the immunoprecipitated KDR were transferred to new tubes and used immediately or frozen and stored at −70° C. for later analysis.
Detection of phosphorylated KDR as well as total KDR in the immunoprecipitates was carried out by immunoblot analysis. […]

Soluble KDR receptor = target: T2, Soluble KDR receptor (Homo sapiens, UniProt P35968); assay: Surface plasmon resonance (Biacore 3000) of P9/P10 heterodimers; assay type: binding
T2 construct: Soluble KDR receptor was cross-linked to the dextran surface of a CM5 sensor chip

[1] = target: T3, KDR expressed by transfected 293H cells (Homo sapiens, UniProt P35968); assay: Competition with 125I-labeled VEGF for binding to KDR-transfected 293H cells
T3 construct: Both PCR products were digested with Not1 and ligated together to create the full-length receptor; V5-His (encoded by the vector); expressed in transfected cells; host or cells: 293H cells (Invitrogen cat. # 11631), transient lipofectamine 2000 transfection
T3 sequence (P35968 20-1356): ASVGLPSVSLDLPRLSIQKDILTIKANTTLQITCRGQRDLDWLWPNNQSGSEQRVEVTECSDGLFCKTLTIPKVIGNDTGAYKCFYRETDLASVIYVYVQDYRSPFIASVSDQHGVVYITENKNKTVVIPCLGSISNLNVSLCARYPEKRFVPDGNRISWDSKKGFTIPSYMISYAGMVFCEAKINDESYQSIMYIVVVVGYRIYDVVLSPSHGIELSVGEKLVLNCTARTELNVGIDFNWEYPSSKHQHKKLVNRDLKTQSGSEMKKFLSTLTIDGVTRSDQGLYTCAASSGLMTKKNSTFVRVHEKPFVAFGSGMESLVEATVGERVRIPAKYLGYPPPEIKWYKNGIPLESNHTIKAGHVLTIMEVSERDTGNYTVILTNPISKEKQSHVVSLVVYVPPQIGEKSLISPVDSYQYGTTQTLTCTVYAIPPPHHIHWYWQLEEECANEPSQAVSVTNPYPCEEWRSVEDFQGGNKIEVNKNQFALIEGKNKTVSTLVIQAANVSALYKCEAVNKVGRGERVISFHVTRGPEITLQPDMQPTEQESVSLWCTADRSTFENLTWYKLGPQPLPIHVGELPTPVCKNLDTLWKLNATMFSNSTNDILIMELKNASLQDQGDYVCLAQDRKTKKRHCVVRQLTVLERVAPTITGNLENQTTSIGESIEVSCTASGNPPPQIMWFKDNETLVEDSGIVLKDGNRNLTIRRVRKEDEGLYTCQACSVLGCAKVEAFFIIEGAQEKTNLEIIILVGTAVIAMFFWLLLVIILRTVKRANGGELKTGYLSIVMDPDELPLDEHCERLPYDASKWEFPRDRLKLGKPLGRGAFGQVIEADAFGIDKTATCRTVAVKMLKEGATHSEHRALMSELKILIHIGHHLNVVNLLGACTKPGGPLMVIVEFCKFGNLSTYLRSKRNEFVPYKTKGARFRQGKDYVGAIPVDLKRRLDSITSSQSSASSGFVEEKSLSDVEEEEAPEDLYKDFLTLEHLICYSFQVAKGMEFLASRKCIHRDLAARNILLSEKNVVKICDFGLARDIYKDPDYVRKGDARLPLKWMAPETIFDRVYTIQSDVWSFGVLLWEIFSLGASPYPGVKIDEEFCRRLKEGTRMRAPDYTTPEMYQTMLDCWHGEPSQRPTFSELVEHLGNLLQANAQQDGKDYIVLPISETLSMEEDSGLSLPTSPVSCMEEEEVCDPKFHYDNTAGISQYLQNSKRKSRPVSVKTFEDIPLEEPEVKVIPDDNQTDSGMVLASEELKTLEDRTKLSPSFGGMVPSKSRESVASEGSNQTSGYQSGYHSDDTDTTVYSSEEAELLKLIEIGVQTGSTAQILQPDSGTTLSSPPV
Procedure: Once prepared, the solutions were kept on ice until ready to use.
Cells were used 24 h after transfection, and to prepare the cells for the assay, they were washed 3 times with room temperature M199 medium and placed in the refrigerator. […] After incubating at 4° C. for 2 h, the plates were washed 5 times with cold binding buffer, gently blotted dry and checked under a microscope for cell loss. 100 μL of solubilizing solution (2% Triton X-100, 10% Glycerol, 0.1% BSA) was added to each well and the plates were incubated at room temperature for 30 minutes. The solubilizing solution in each well was mixed by pipeting up and down, and transferred to 1.2 mL tubes. Each well was washed twice with 100 μL of solubilizing solution and the washes were added to the corresponding 1.2 mL tube.
After washing the cells, the bound radioactivity was quantitated on a gamma counter.

T2 sequence (P35968 20-764 limits assumed): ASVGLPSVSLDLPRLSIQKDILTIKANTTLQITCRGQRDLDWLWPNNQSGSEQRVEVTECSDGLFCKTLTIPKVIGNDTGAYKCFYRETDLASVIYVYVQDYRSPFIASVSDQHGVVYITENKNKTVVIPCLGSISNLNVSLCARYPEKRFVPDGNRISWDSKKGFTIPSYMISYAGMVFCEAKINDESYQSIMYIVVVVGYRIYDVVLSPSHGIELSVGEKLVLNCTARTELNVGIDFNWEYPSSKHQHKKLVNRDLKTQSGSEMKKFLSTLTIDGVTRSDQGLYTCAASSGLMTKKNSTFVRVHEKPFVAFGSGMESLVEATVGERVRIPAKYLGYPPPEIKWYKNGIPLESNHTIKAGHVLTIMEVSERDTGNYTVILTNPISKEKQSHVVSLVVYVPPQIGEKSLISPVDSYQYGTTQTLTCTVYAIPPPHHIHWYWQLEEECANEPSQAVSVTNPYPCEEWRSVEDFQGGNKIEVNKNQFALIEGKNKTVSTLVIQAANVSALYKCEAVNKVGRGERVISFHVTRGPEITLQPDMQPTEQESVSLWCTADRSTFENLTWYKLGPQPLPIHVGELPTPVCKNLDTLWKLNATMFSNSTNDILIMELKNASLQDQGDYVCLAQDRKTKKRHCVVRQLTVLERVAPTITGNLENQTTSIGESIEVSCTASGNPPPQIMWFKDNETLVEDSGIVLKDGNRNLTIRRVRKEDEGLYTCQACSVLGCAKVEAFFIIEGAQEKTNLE
T1 sequence (P35968 20-1356): as the sequence (P35968 20-1356) above

Compound: CC(=O)N[C@@H](C)C(=O)N[C@@H](CCC(N)=O)C(=O)N[C@@H](CCCNC(=N)N)C(=O)NCC(=O)N[C@@H](CC(=O)O)C(=O)N[C@@H](Cc1ccc(O)cc1)C(=O)N[C@@H](CCC(N)=O)C(=O)N[C@@H](CCC(=O)O)C(=O)N[C@@H](CCC(N)=O)C(=O)N[C@@H](Cc1ccc(O)cc1)C(=O)N[C@@H](Cc1c[nH]c2ccccc12)C(=O)N[C@@H](Cc1c[nH]cn1)C(=O)N[C@@H](CCC(N)=O)C(=O)N[C@@H](CCC(N)=O)C(=O)N[C@@H](CC(C)C)C(=O)N[C@H](C(=O)N[C@@H](CCC(=O)O)C(=O)N[C@@H](CCC(N)=O)C(=O)N[C@@H](CC(C)C)C(=O)N[C@@H](CCCCNC(CC(C)C)=C1C(=O)CC(C)(C)CC1=O)C(=O)N[C@@H](CC(C)C)C(=O)N[C@@H](CC(C)C)C(=O)NCC(=O)NCC(=O)NCC(=O)N[C@@H](CCCCN)C(N)=O)C(C)C [P19-E] (Ac-AQRGDYQEQYWHQQLVEQL[Lys(ivDde)]LLGGGK-NH2)
- inhibition of KDR activation (KDR; 10 μM): did not produce significant inhibition of KDR activation

Compound: CSCC[C@@H]1NC(=O)[C@H](CC(N)=O)NC(=O)[C@H](CO)NC(=O)[C@H](Cc2c[nH]c3ccccc23)NC(=O)CNC(=O)[C@@H](NC(=O)[C@H](CCC(=O)O)NC(=O)[C@H](Cc2c[nH]c3ccccc23)NC(=O)[C@H](CC(N)=O)NC(=O)[C@H](CC(=O)O)NC(=O)CNC(C)=O)CSSC[C@@H](C(=O)N[C@@H](C)C(=O)N[C@@H](CCCNC(=N)N)C(=O)N2CCC[C@H]2C(=O)N[C@@H](CC(=O)O)C(=O)N2CCC[C@H]2C(=O)NCC(=O)NCC(=O)NCC(=O)N[C@@H](CCCCN)C(N)=O)NC(=O)[C@H](Cc2ccccc2)NC(=O)[C@H](CCC(=O)O)NC(=O)[C@H](CCCCNC(CC(C)C)=C2C(=O)CC(C)(C)CC2=O)NC(=O)[C@H](CCC(N)=O)NC(=O)[C@H](Cc2ccccc2)NC1=O [P20-E] (Ac-GDNWECGWSNMFQ[Lys(ivDde)]EFCARPDPGGGK-NH2; disulfide 6-17)
- inhibition of KDR activation (KDR; 10 μM): did not produce significant inhibition of KDR activation

Compound: CSCC[C@H](NC(=O)[C@H](Cc1ccc(O)cc1)NC(=O)[C@H](Cc1c[nH]c2ccccc12)NC(=O)[C@@H]1CSSC[C@H](NC(=O)[C@@H]2CCCN2C(=O)CNC(=O)[C@@H]2CCCN2C(=O)CNC(=O)[C@H](C)NC(C)=O)C(=O)N[C@@H](CCCCNC(CC(C)C)=C2C(=O)CC(C)(C)CC2=O)C(=O)NCC(=O)N[C@@H](Cc2ccc(O)cc2)C(=O)N[C@@H](CCSC)C(=O)N2CCC[C@H]2C(=O)N[C@@H](Cc2c[nH]cn2)C(=O)N[C@@H](CCC(N)=O)C(=O)N1)C(=O)NCC(=O)N[C@H](C(=O)NCC(=O)NCC(=O)NCC(=O)N[C@@H](CCCCN)C(N)=O)[C@@H](C)O [P21-E] (Ac-AGPGPC[Lys(ivDde)]GYMPHQCWYMGTGGGK-NH2; disulfide 6-14)
- inhibition of KDR activation (KDR; 10 μM): did not produce significant inhibition of KDR activation

- increase in affinity over the individual monomer (Soluble KDR receptor): greater than 60 fold
- kd,1 (Soluble KDR receptor): 0.00128 s⁻¹
- kon (Soluble KDR receptor; pH 7.65, read-out: ka,1): 115000 M⁻¹ s⁻¹
Compound: CC[C@H](C)[C@H](NC(=O)[C@H](Cc1c[nH]c2ccccc12)NC(=O)[C@H](Cc1ccc(O)cc1)NC(=O)[C@H](CC(=O)O)NC(=O)[C@H](CC(=O)O)NC(=O)CNC(=O)CNC(=O)[C@H](Cc1ccccc1)NC(=O)[C@H](CCCNC(=N)N)NC(=O)[C@@H]1CCCN1C(=O)[C@H](Cc1ccccc1)NC(=O)[C@H](C)NC(=O)[C@H](CCC(N)=O)NC(=O)[C@H](C)NC(C)=O)C(=O)N[C@@H](CCC(N)=O)C(=O)N[C@@H](CCC(N)=O)C(=O)N[C@@H](Cc1ccc(O)cc1)C(=O)N[C@@H](CC(C)C)C(=O)N[C@@H](CCCNC(=N)N)C(=O)N[C@@H](Cc1ccc(O)cc1)C(=O)N[C@H](C(=O)N[C@@H](CC(=O)O)C(=O)NCC(=O)NCC(=O)N[C@@H](CCCCNC(=O)CCOCCOCCOCCOCCNC(=O)CON=C(C)CCC(=O)NCCOCCOCCOCCOCCC(=O)NCCCC[C@H](NC(=O)CNC(=O)CNC(=O)[C@H](CC(=O)O)NC(=O)CNC(=O)[C@H](CC(=O)O)NC(=O)[C@H](CCC(=O)O)NC(=O)[C@H](CCC(=O)O)NC(=O)[C@H](Cc1c[nH]cn1)NC(=O)[C@H](Cc1ccc(O)cc1)NC(=O)[C@H](CC(C)C)NC(=O)[C@@H](NC(=O)[C@@H](NC(=O)[C@@H](NC(=O)[C@H](CCC(=O)O)NC(=O)[C@H](Cc1c[nH]c2ccccc12)NC(=O)[C@H](Cc1ccc(O)cc1)NC(=O)[C@H](C)NC(=O)[C@H](Cc1ccc(O)cc1)NC(=O)CNC(=O)[C@H](CCC(=O)O)NC(=O)[C@@H]1CCCN1C(=O)[C@H](CCC(=O)O)NC(=O)[C@H](CCC(N)=O)NC(=O)[C@H](C)NC(C)=O)C(C)C)[C@@H](C)CC)[C@@H](C)O)C(N)=O)C(N)=O)[C@@H](C)O [Tail-to-tail dimer]

Compound: AGDSWCSTEYTYCEMIGT [P4]
- competition with 125I-VEGF for binding to KDR-transfected cells [1]: did not compete significantly

Compound: AQAFPRFGGDDYWIQQYLRYTDGG [P10]
- kd,1 (Soluble KDR receptor): 0.45 s⁻¹
- inhibition of KDR activation (KDR; 10 μM): clearly able to partially block the VEGF-induced activation of KDR

Compound: AQEPEGYAYWEVITLYHEEDGDGG [P9]
- kd,1 (Soluble KDR receptor): 0.00332 s⁻¹

Compound: Ac-AGPKWC*EEDWYYC*MITGT-GGGK-NH2 [P5-D]
- inhibition of VEGF-induced activation of KDR (KDR): inhibit activation of KDR

Compound: Ac-AGPTWC*EDDWYYC*WLFGT-GGGK-(Biotin-JJ-)-NH2 [P12-XB]
- percentage inhibition of 125I-labeled VEGF binding ([1]; 0.3 μM peptide): 80.96±3.8%
- percentage inhibition of 125I-labeled VEGF binding ([1]; 30 μM peptide): 104.48±2.07%

Compound: Ac-AQAFPRFGGDDYWIQQYLRYTDGGK-NH2 [P10-D]
- inhibition of VEGF-induced activation of KDR (KDR): inhibit activation of KDR; also recorded: able to largely inhibit the VEGF-induced phosphorylation of KDR

- inhibition at 10 µM (KDR; HUVEC, 10 μM, read-out: inhibition of VEGF-induced KDR phosphorylation): ≥ 50%
- inhibition of VEGF-induced activation of KDR (KDR): inhibit activation of KDR
Compound: Ac-AQGDYVYWEIIELTGATDHTPPGGGK-NH2 [P11-D]

Compound: Ac-GDSRVC*WEDSWGGEVC*FRYDPGGGK-NH2 [P6-D]
- inhibition of VEGF-induced activation of KDR (KDR): inhibit activation of KDR
